What was measured:
[1] = test system: HCT116 colon cancer cell line; experiment: MTS-based cell proliferation inhibition assay; parameters: species or system human; details: dose-dependent (FIG. 2)
β-catenin/Tcf4 = β-catenin/Tcf4 (Homo sapiens (Human), UniProt P35222); experiment: Fluorescence polarization (FP) competitive inhibition assay, β-catenin/Tcf4; format: binding; details: Table 2, mean ± SD (n=3)
Description: Experiments were performed in 96-well Microfluor 2 black plates (Waltham, Mass.), and the samples were read by a Synergy 2 plate reader (Biotek, Winooski, Vt.). […] The final reaction volume is 100 μL.

β-catenin/Tcf4, sequence (P35222 138-686): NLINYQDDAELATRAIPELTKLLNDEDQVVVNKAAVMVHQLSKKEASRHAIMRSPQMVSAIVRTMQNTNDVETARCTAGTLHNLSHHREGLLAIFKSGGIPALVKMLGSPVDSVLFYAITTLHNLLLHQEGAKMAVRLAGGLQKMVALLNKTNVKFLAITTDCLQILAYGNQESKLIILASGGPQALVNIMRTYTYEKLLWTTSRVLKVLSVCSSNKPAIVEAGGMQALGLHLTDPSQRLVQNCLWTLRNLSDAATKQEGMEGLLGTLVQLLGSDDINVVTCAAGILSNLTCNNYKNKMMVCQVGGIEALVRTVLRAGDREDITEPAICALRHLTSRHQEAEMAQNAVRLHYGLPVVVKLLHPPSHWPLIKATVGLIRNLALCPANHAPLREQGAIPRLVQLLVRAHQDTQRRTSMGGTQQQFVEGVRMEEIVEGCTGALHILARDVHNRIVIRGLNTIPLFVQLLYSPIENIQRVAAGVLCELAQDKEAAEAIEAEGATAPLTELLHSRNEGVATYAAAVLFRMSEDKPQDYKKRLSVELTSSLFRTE

Row | Ki (β-catenin/Tcf4) | Substance | inhibition of growth of colon cancer cell HCT116 [1]
1 |  | 3-(2-(1-hydroxy-1H-indazol-5-yl)ethyl)-1,2,4-oxadiazole-5(4H)-thione [Compound 14] | inhibit the proliferation
2 | 125 ± 1.3 µM | 3-((1-hydroxy-1H-indazol-5-yl)methyl)-1,2,4-oxadiazol-5(4H)-one [Compound 10] | 
3 |  | 5-(2-(2H-tetrazol-5-yl)ethyl)-1H-indazol-1-ol [Compound 12] | inhibit the proliferation
